{
  "source": "paper PMC12396409",
  "about": "“Screening and hit evaluation of a microbial metabolite library against the pathogenic Plasmodium falciparum and Toxoplasma gondii parasites” (International Journal for Parasitology: Drugs and Drug …, 2025)",
  "key": {"[1]": {"tested_on": "P. falciparum 3D7 parasites", "assay": "P. falciparum growth inhibition assay, 2-cycle (120 h treatment), delayed-death screen and dose-response", "type": "cell-based, Plasmodium falciparum", "conditions": "for activity at 2 µg/mL: Plasmodium falciparum"}, "[2]": {"tested_on": "P. falciparum 3D7 parasites", "assay": "P. falciparum growth inhibition assay, 1-cycle (72 h treatment), SYBR DNA staining (library screen at 2 μg/mL and dose-response)", "type": "cell-based, Plasmodium falciparum", "conditions": "for activity at 2 µg/mL: Plasmodium falciparum"}, "[3]": {"tested_on": "T. gondii RH strain (RH-Tub-eYFP) tachyzoites", "assay": "microbe, parasite or virus in culture", "type": "cell-based, Toxoplasma gondii", "conditions": "72 h; for percent parasite growth at 2 µg/mL: Toxoplasma gondii"}, "[4]": {"conditions": "P. falciparum 3D7, 120 h, parasite screen at 2 μg/mL, % growth, replicate 1"}, "[5]": {"conditions": "P. falciparum 3D7, 120 h, parasite screen at 2 μg/mL, % growth, replicate 2"}, "[6]": {"conditions": "P. falciparum 3D7, 72 h, parasite screen at 2 μg/mL, % growth, replicate 1"}, "[7]": {"conditions": "P. falciparum 3D7, 72 h, parasite screen at 2 μg/mL, % growth, replicate 2"}, "[8]": {"conditions": "T. gondii, parasite screen at 2 μg/mL, % growth, replicate 1"}, "[9]": {"conditions": "T. gondii, parasite screen at 2 μg/mL, % growth, replicate 2"}, "[10]": {"conditions": "P. falciparum, 120 h, screen at 2 μg/mL, replicate 1"}, "[11]": {"conditions": "P. falciparum, 120 h, screen at 2 μg/mL, replicate 2"}, "[12]": {"conditions": "P. falciparum, 72 h, screen at 2 μg/mL, replicate 1"}, "[13]": {"conditions": "P. falciparum, 72 h, screen at 2 μg/mL, replicate 2"}, "[14]": {"conditions": "T. gondii, screen at 2 μg/mL, replicate 1"}, "[15]": {"conditions": "T. gondii, screen at 2 μg/mL, replicate 2"}},
  "note": "Read-outs that look alike come from different tables or passages of the source.",
  "data": [
    {"smiles": "Cn1c2ccccc2c(=O)c2c(O)cc3c(c21)C=CC(C)(C)O3", "note": "[BIA-N1949]", "values": [
      {"measurement": "Pf_120h_%Growth_Rep1", "setting": "[1]; [4]", "result": 85.11, "unit": "%"},
      {"measurement": "Pf_120h_%Growth_Rep2", "setting": "[1]; [5]", "result": 95.19, "unit": "%"},
      {"measurement": "Pf_72h_%Growth_Rep1", "setting": "[2]; [6]", "result": 90.51, "unit": "%"},
      {"measurement": "Pf_72h_%Growth_Rep2", "setting": "[2]; [7]", "result": 117.30, "unit": "%"},
      {"measurement": "Tg_72h_%Growth_Rep1", "setting": "[3]; [8]", "result": 111.30, "unit": "%"},
      {"measurement": "Tg_72h_%Growth_Rep2", "setting": "[3]; [9]", "result": 95.22, "unit": "%"}
    ]},
    {"smiles": "CC1=C(O)C(=O)[C@@H]2O[C@@H]2C1=O", "note": "[Terreic acid]", "values": [
      {"measurement": "activity at 2 µg/mL", "setting": "[1]; 3D7, 120 h, P. falciparum, 120 h, screen at 2 μg/mL, replicate 1, read-out: Pf_120h_%Growth_Rep1", "result": 100, "unit": "%"},
      {"measurement": "activity at 2 µg/mL", "setting": "[1]; 3D7, 120 h, P. falciparum, 120 h, screen at 2 μg/mL, replicate 2, read-out: Pf_120h_%Growth_Rep2", "result": 98, "unit": "%"},
      {"measurement": "activity at 2 µg/mL", "setting": "[2]; 3D7, 72 h, P. falciparum, 72 h, screen at 2 μg/mL, replicate 1, read-out: Pf_72h_%Growth_Rep1", "result": 89.2, "unit": "%"},
      {"measurement": "activity at 2 µg/mL", "setting": "[2]; 3D7, 72 h, P. falciparum, 72 h, screen at 2 μg/mL, replicate 2, read-out: Pf_72h_%Growth_Rep2", "result": 121, "unit": "%"},
      {"measurement": "percent parasite growth at 2 µg/mL", "setting": "[3]; T. gondii, screen at 2 μg/mL, replicate 1, read-out: Tg_72h_%Growth_Rep1", "result": 132, "unit": "%"},
      {"measurement": "percent parasite growth at 2 µg/mL", "setting": "[3]; T. gondii, screen at 2 μg/mL, replicate 2, read-out: Tg_72h_%Growth_Rep2", "result": 83, "unit": "%"}
    ]},
    {"smiles": "CC(C)(O)[C@H]1O[C@H]2CC[C@@]3(C)[C@@](O)(CC[C@H]4Cc5c([nH]c6ccccc56)[C@@]43C)[C@]23O[C@@H]3[C@@H]1O", "note": "[Terpendole I]", "values": [
      {"measurement": "Pf_120h_%Growth_Rep1", "setting": "[1]; [10]", "result": 141.22, "unit": "%"},
      {"measurement": "Pf_120h_%Growth_Rep2", "setting": "[1]; [11]", "result": 87.55, "unit": "%"},
      {"measurement": "Pf_72h_%Growth_Rep1", "setting": "[2]; [12]", "result": 66.72, "unit": "%"},
      {"measurement": "Pf_72h_%Growth_Rep2", "setting": "[2]; [13]", "result": 80.63, "unit": "%"},
      {"measurement": "Tg_72h_%Growth_Rep1", "setting": "[3]; [14]", "result": 89.20, "unit": "%"},
      {"measurement": "Tg_72h_%Growth_Rep2", "setting": "[3]; [15]", "result": 95.24, "unit": "%"}
    ]},
    {"smiles": "CC1(C)CCC[C@]2(C)[C@@H](C=O)C(C=O)=CC[C@@H]12", "note": "[Polygodial]", "values": [
      {"measurement": "activity at 2 µg/mL", "setting": "[1]; 3D7, P. falciparum, 120 h, parasite screen 2 μg/mL, % growth, replicate 1, read-out: Pf_120h_%Growth_Rep1", "result": 6.02, "unit": "%"},
      {"measurement": "activity at 2 µg/mL", "setting": "[1]; 3D7, P. falciparum, 120 h, parasite screen 2 μg/mL, % growth, replicate 2, read-out: Pf_120h_%Growth_Rep2", "result": 28.5, "unit": "%"},
      {"measurement": "activity at 2 µg/mL", "setting": "[2]; 3D7, P. falciparum, 72 h, parasite screen 2 μg/mL, % growth, replicate 1, read-out: Pf_72h_%Growth_Rep1", "result": 1.12, "unit": "%"},
      {"measurement": "activity at 2 µg/mL", "setting": "[2]; 3D7, P. falciparum, 72 h, parasite screen 2 μg/mL, % growth, replicate 2, read-out: Pf_72h_%Growth_Rep2", "result": -3.71, "unit": "%"},
      {"measurement": "percent parasite growth at 2 µg/mL", "setting": "[3]; T. gondii, parasite screen 2 μg/mL, % growth, replicate 1, read-out: Tg_72h_%Growth_Rep1", "result": 101, "unit": "%"},
      {"measurement": "percent parasite growth at 2 µg/mL", "setting": "[3]; T. gondii, parasite screen 2 μg/mL, % growth, replicate 2, read-out: Tg_72h_%Growth_Rep2", "result": 101, "unit": "%"}
    ]},
    {"smiles": "C=C[C@@](C)(CCC=C(C)C)c1ccc2c3c(c[nH]c13)C[C@@H](CO)NC(=O)[C@H](C(C)C)N2C", "note": "[Teleocidin A1]", "values": [
      {"measurement": "Pf_120h_%Growth_Rep1", "setting": "[1]; [10]", "result": 8.14, "unit": "%"},
      {"measurement": "Pf_120h_%Growth_Rep2", "setting": "[1]; [11]", "result": 11.61, "unit": "%"},
      {"measurement": "Pf_72h_%Growth_Rep1", "setting": "[2]; [12]", "result": 6.74, "unit": "%"},
      {"measurement": "Pf_72h_%Growth_Rep2", "setting": "[2]; [13]", "result": -5.43, "unit": "%"},
      {"measurement": "Tg_72h_%Growth_Rep1", "setting": "[3]; [14]", "result": 75.89, "unit": "%"},
      {"measurement": "Tg_72h_%Growth_Rep2", "setting": "[3]; [15]", "result": 83.10, "unit": "%"}
    ]},
    {"smiles": "COc1oc(C2C/C(=C/C(C)=C/C(C)=C/C(C)=C/c3ccc([N+](=O)[O-])cc3)CO2)c(C)c(=O)c1C", "note": "(stereo not drawn) [BIA-N1058]", "values": [
      {"measurement": "Pf_120h_%Growth_Rep1", "setting": "[1]; [4]", "result": 17.59, "unit": "%"},
      {"measurement": "Pf_120h_%Growth_Rep2", "setting": "[1]; [5]", "result": 18.76, "unit": "%"},
      {"measurement": "Pf_72h_%Growth_Rep1", "setting": "[2]; [6]", "result": 9.38, "unit": "%"},
      {"measurement": "Pf_72h_%Growth_Rep2", "setting": "[2]; [7]", "result": 10.75, "unit": "%"},
      {"measurement": "Tg_72h_%Growth_Rep1", "setting": "[3]; [8]", "result": 44.53, "unit": "%"},
      {"measurement": "Tg_72h_%Growth_Rep2", "setting": "[3]; [9]", "result": 72.88, "unit": "%"}
    ]},
    {"smiles": "CC[C@H]1NC(=O)[C@@H](NC(=O)c2ncccc2O)[C@@H](C)OC(=O)[C@H](c2ccccc2)NC(=O)[C@@H]2CC(=O)CCN2C(=O)[C@H](Cc2ccccc2)N(C)C(=O)[C@@H]2CCCN2C1=O", "note": "[Virginiamycin S1]", "values": [
      {"measurement": "Pf_120h_%Growth_Rep1", "setting": "[1]; [10]", "result": 110.70, "unit": "%"},
      {"measurement": "Pf_120h_%Growth_Rep2", "setting": "[1]; [11]", "result": 75.61, "unit": "%"},
      {"measurement": "Pf_72h_%Growth_Rep1", "setting": "[2]; [12]", "result": 88.54, "unit": "%"},
      {"measurement": "Pf_72h_%Growth_Rep2", "setting": "[2]; [13]", "result": 126.74, "unit": "%"},
      {"measurement": "Tg_72h_%Growth_Rep1", "setting": "[3]; [14]", "result": 137.70, "unit": "%"},
      {"measurement": "Tg_72h_%Growth_Rep2", "setting": "[3]; [15]", "result": 85.91, "unit": "%"}
    ]},
    {"smiles": "COc1ccc2c(c1OC)C(=O)OC2C1c2cc3c(cc2CCN1C)OCO3", "note": "(stereo not drawn) [BIA-H1954]", "values": [
      {"measurement": "Pf_120h_%Growth_Rep1", "setting": "[1]; P. falciparum 3D7, 120 h, library screen at 2 μg/mL, % growth, replicate 1", "result": 145.49, "unit": "%"},
      {"measurement": "Pf_120h_%Growth_Rep2", "setting": "[1]; P. falciparum 3D7, 120 h, library screen at 2 μg/mL, % growth, replicate 2", "result": 80.33, "unit": "%"},
      {"measurement": "Pf_72h_%Growth_Rep1", "setting": "[2]; P. falciparum 3D7, 72 h, library screen at 2 μg/mL, % growth, replicate 1", "result": 81.78, "unit": "%"},
      {"measurement": "Pf_72h_%Growth_Rep2", "setting": "[2]; P. falciparum 3D7, 72 h, library screen at 2 μg/mL, % growth, replicate 2", "result": 87.48, "unit": "%"},
      {"measurement": "Tg_72h_%Growth_Rep1", "setting": "[3]; T. gondii RH, library screen at 2 μg/mL, % growth, replicate 1", "result": 92.88, "unit": "%"},
      {"measurement": "Tg_72h_%Growth_Rep2", "setting": "[3]; T. gondii RH, library screen at 2 μg/mL, % growth, replicate 2", "result": 95.07, "unit": "%"}
    ]},
    {"smiles": "CC(=O)O[C@@H]1CC[C@@]2(C)[C@@H](CC[C@@H](C)[C@]23Cc2c(O)cc(CO)c(C=O)c2O3)C1(C)C", "note": "[Stachybotrysin B]", "values": [
      {"measurement": "Pf_120h_%Growth_Rep1", "setting": "[1]; P. falciparum, 120 h, parasite screen 2 μg/mL, % growth, replicate 1", "result": 161.09, "unit": "%"},
      {"measurement": "Pf_120h_%Growth_Rep2", "setting": "[1]; P. falciparum, 120 h, parasite screen 2 μg/mL, % growth, replicate 2", "result": 88.10, "unit": "%"},
      {"measurement": "Pf_72h_%Growth_Rep1", "setting": "[2]; P. falciparum, 72 h, parasite screen 2 μg/mL, % growth, replicate 1", "result": 81.92, "unit": "%"},
      {"measurement": "Pf_72h_%Growth_Rep2", "setting": "[2]; P. falciparum, 72 h, parasite screen 2 μg/mL, % growth, replicate 2", "result": 82.33, "unit": "%"},
      {"measurement": "Tg_72h_%Growth_Rep1", "setting": "[3]; T. gondii, parasite screen 2 μg/mL, % growth, replicate 1", "result": 84.36, "unit": "%"},
      {"measurement": "Tg_72h_%Growth_Rep2", "setting": "[3]; T. gondii, parasite screen 2 μg/mL, % growth, replicate 2", "result": 101.19, "unit": "%"}
    ]}
  ]
}
